“Also recorded” adds a separate entry of the source. Bridge positions count the residues as written; N and C are the ends. Square brackets hold non-standard residues; d marks the D form. Peptide text beside a SMILES is read from it.
Legend:
[1] = test system: oxygen induced retinopathy; test: Oxygen induced retinopathy in neonatal mice, retinal scoring of fluorescein perfused whole mounts; type: in vivo, C57BL6 mice; conditions: for retinal neovascularization: mouse model of oxygen induced retinopathy; for median total retinopathy score / median total retinopathy score [median(25th, 75th quartile)]: oxygen reared; for median total retinopathy score [median(25th, 75th quartile)]: octreotide 20 μg kg^−1 bid s.c. P12-P16
Procedure: (§1) This protocol was approved by the Georgetown University Animal Care and Use committee and adhered to the Association for Research in Vision and Ophthalmology Statement for the Use of Animals in Ophthalmic and Vision Research. C57BL6 mice were obtained from Taconic Laboratories (Germantown, N.Y.). Neonatal mice were placed in an infant incubator with their nursing mother with 75% oxygen at P7 and remained in oxygen until removal to room air at P12 (Smith et al., 1994 Invest. Ophthalmol. Vis. Sci. 35, 101-11). Oxygen was delivered at 75±2%, measured with an oxygen analyser (Hudson Ventonics, Temecula, Calif., U.S.A.), and checked at least twice daily. Individual litters were either oxygen or room air reared. Within litters, differential treatment was performed including no treatment, octreotide, Woc4D, and sham injection. Animals were treated with injections for 5 days from P12 to P16. Animal killing was performed using a lethal dose of pentobarbital (120 mg/kg i.p.). Animals were perfused with fluorescein conjugated dextran as previously described (D'Amato et al., 1993, Microvasc. Res. 46, 135-42) and retinopathy was assessed by a retinal scoring system shown in Table I.
It was received and used as the acetate salt. Octreotide acetate was purchased from Polypeptide Laboratories. […] The analogs were dissolved in 33 mM acetate buffer (pH 5) with 135 mM NaCl. Sham injections were performed with that vehicle.
Retinopathy scores were evaluated by the Kruskal-Wallis test for the overall group and by the Mann-Whitney test to determine differences between groups. Animals weights and GH expression were evaluated using Student's t-test. Statistical significance was determined at the P<0.05 level.

[2] = test system: pituitary growth hormone (GH) mRNA; test: Pituitary growth hormone mRNA expression by RT-PCR; type: in vivo, C57BL6 mice
Procedure: RNA was extracted using TRIzol reagent (Life Technologies, Rockville, Md., U.S.A.) as described by the manufacturer and reverse transcriptase polymerase chain reaction (RT-PCR) was performed. Ten μg of RNA and 2 μM oligo(dT) 16 (total volume 22 μl) were heated at 68° C. for 2 min and cooled on ice. […] The mixture was incubated at 42° C. for 1 hour, then 99° C. for 5 min. The resultant cDNA was diluted with 100 μl of water and stored at -20° C. until PCR was performed. […] The mixture was incubated for 4 min at 94° C., followed by 28 cycles of 45 s at 94° C., 45 s at 58° C., and 45 s at 72° C., followed by 7 min at 72° C., in a PCR apparatus (model 2400, Perkin Elmer). To verify equal amounts of RNA were used in the PCR reaction and to verify uniform amplification process, β-actin mRNA was also amplified from the sample as an internal control. […] A 100 bp DNA ladder was used as a size marker. The number of cycles versus intensity of the PCR band was evaluated to determine the optimum number of cycles to be in the linear range. […] Retinopathy scores were evaluated by the Kruskal-Wallis test for the overall group and by the Mann-Whitney test to determine differences between groups. Animals weights and GH expression were evaluated using Student's t-test. Statistical significance was determined at the P<0.05 level.

[3] = Growth as measured by animal weight; type: in vivo, C57BL6 mice; conditions: Woc4D or octreotide treatment P12-P16
Procedure: as §1, with “Animal killing was performed using a lethal dose of pentobarbital (120 mg/kg i.p.).” left out, “I. […]” for “I.”
Retinopathy scores were evaluated by the Kruskal-Wallis test for the overall group and by the Mann-Whitney test to determine differences between groups. Animals weights and GH expression were evaluated using Student's t-test. Statistical significance was determined at the P<0.05 level. […]

SSTR2 [4] = molecular target: T1, SSTR2 (Homo sapiens, UniProt P30874); conditions: cited from earlier work
SSTR2 [5] = molecular target: T1, SSTR2; conditions: agonist analog; cited from earlier work

T1 sequence (P30874 whole entry, species assumed): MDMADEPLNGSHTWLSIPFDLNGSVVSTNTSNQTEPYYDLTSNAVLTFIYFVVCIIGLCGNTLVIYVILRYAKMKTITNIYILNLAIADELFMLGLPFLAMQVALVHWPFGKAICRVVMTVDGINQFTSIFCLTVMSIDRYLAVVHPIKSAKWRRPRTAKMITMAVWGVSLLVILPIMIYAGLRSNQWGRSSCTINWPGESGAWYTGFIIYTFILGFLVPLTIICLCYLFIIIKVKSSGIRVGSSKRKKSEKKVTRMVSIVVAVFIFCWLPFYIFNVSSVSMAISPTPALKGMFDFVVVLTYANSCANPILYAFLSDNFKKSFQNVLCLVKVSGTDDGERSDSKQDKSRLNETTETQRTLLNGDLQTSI

C[C@@H](O)[C@@H]1NC(=O)[C@H](CCCCN)NC(=O)[C@@H](Cc2c[nH]c3ccccc23)NC(=O)[C@H](Cc2ccccc2)NC(=O)[C@@H](NC(=O)[C@H](N)Cc2ccccc2)CSSC[C@@H](C(=O)N[C@H](CO)[C@@H](C)O)NC1=O [octreotide, D-Phe-Cys-Phe-D-Trp-Lys-Thr-Cys Thr(ol)]
Blood vessel growth subscore, median ([1]; Oxygen + oct 20 bid): 0
Blood vessel tufts subscore, median ([1]; Oxygen + oct 20 bid): decreased blood vessel tufts; also recorded: improvement
Central vasoconstriction subscore, median ([1]; Oxygen + oct 20 bid): 1
Extra retinal neovascularization subscore, median ([1]; Oxygen + oct 20 bid): decreased extra-retinal neovascularization; also recorded: improvement
Blood vessel growth subscore, median (25th, 75th quartile) ([1]; Room air + oct 20 bid): 0 (0, 0)
Blood vessel tortuosity subscore, median (25th, 75th quartile) ([1]; Room air + oct 20 bid): 0 (0, 0)
Blood vessel tufts subscore, median (25th, 75th quartile) ([1]; Room air + oct 20 bid): 0 (0, 0)
Central vasoconstriction subscore, median (25th, 75th quartile) ([1]; Room air + oct 20 bid): 0 (0, 0)
Extra retinal neovascularization subscore, median (25th, 75th quartile) ([1]; Room air + oct 20 bid): 0 (0, 0)
Hemorrhage subscore, median (25th, 75th quartile) ([1]; Room air + oct 20 bid): 0 (0, 0)
retinal neovascularization [1]: inhibited retinal neovascularization in an equally effective manner
median total retinopathy score ([1]; octreotide 10 μg kg^−1 bid P12-P16): 6(3,7)
median total retinopathy score [median(25th, 75th quartile)] [1]: significant improvement
median total retinopathy score [median(25th, 75th quartile)] ([1]; listed as octreoride): 3.5(2.9, 4.3)
oxygen stimulated GH mRNA ([2]; oxygen + octreotide 20 μg kg^−1 bid P12-P16): markedly reduced
growth as measured by animal weight [3]: unaffected
receptor selectivity of stimulation (SSTR2 [4]): effective in stimulating SSTR2 to the virtual exclusion of the other receptors

C[C@@H](O)[C@H](NC(=O)[C@@H]1CSSC[C@H](NC(=O)[C@@H](Cc2ccc(O)cc2)NC(=O)[C@@H](Cc2ccc(O)cc2)NC(=O)[C@@H](Cc2ccc(O)cc2)NC(=O)[C@H](N)Cc2ccc(O)cc2)C(=O)N[C@@H](Cc2ccccc2)C(=O)N[C@H](Cc2c[nH]c3ccccc23)C(=O)N[C@@H](CCCCN)C(=O)N[C@@H]([C@@H](C)O)C(=O)N1)C(N)=O [Woc4D, Dtyr-Dtyr-Dtyr-Dtyr-cyclo(Cys-Phe-DTrp-Lys-Thr-Cys)-Thr-NH2] (H-[dY][dY][dY][dY]CF[dW]KTCT-NH2; disulfide 5-10; N-terminus assumed)
Blood vessel growth subscore, median ([1]; Oxygen + Woc4D 50): 0
Blood vessel tortuosity subscore, median ([1]; Oxygen + Woc4D 50): 1
Hemorrhage subscore, median ([1]; Oxygen + Woc4D 50): 1
Blood vessel growth subscore, median (25th, 75th quartile) ([1]; Room air + Woc4D 50): 0 (0, 0)
Blood vessel tortuosity subscore, median (25th, 75th quartile) ([1]; Room air + Woc4D 50): 0 (0, 0)
Blood vessel tufts subscore, median (25th, 75th quartile) ([1]; Room air + Woc4D 50): 0 (0, 0)
Central vasoconstriction subscore, median (25th, 75th quartile) ([1]; Room air + Woc4D 50): 0 (0, 0)
Extra retinal neovascularization subscore, median (25th, 75th quartile) ([1]; Room air + Woc4D 50): 0 (0, 0)
Hemorrhage subscore, median (25th, 75th quartile) ([1]; Room air + Woc4D 50): 0 (0, 0)
retinal neovascularization [1]: inhibited retinal neovascularization in an equally effective manner
retinal vascular pathology in retinal whole mount (FIG. 3) ([1]; oxygen exposed, Woc4D treated animal): less retinal vascular pathology
median total retinopathy score ([1]; Woc4D 20 μg kg^−1 day^−1 P12-P16): 6(3,7)
oxygen stimulated GH mRNA ([2]; oxygen + Woc4D 50 μg kg^−1 day^−1 P12-P16): markedly reduced
growth as measured by animal weight [3]: unaffected
affinity of interaction with SSTR2 (SSTR2 [5]): high affinity

Reference: patent US20030207811A1, “Method of treating retinopathy of prematurity using somatostatin analogs” (priority 2002, published 2003)
